From patent US20230365673A1, “MEANS FOR REDUCING RADIO- AND CHEMOTHERAPY RESISTANCE AND ADVERSE EFFECTS” (JOHANN WOLFGANG GOETHE-UNIVERSITÄT FRANKFURT AM MAIN, priority 2020, published 2023) come the findings set out here.

This test relates to APTKA orthotopic tumours. The test can be described thus: Orthotopic APTKA organoid rectal cancer model with local fractionated radiotherapy (5×2 Gy). The test is classed as in vivo, C57BL/6 mice. The text has this: (A and B) Schematic representation of the orthotopic transplantation of APTKA & APTK mouse organoids into C57BL/6 mice followed by local fractionated radiotherapy (5×2 Gy) of established tumours and end point colonoscopy 21 days after the last irradiation. (C) Heat map analysis of RNA sequencing data of APTKA (n=4) and APTK (n=5) orthotopic tumours. (D) GSEA of CAF signature using RNA sequencing data of APTKA and APTK orthotopic tumours. Significant NES≤−1; FDR q-value<0.05. (E) H&E stained sections of APTK and APTKA untreated and irradiated orthotopic tumours 21 days after last irradiation. Scale bars=500 μm. (F and G) Overall tumour (mm3) and invasive area (%) of untreated (n=5) and irradiated (n=6) APTK orthotopic tumours. Data are mean±SD. *** p<0.001 and **** p<0.0001 by t-test. (H and I) Overall tumour (mm3) and invasive area (%) of untreated (n=5) and irradiated (n=5) APTKA orthotopic tumours. ** p<0.01 by t-test. Data are mean±SD. (J) Frequency of mice with liver metastasis in untreated or irradiated APTKA orthotopic tumours (n=5 mice per group). (K) H&E staining of untreated and irradiated APTKA orthotopic tumours. Scale bars=300 μm. Representative images of αSMA (Green), Vimentin (Blue) and Collagen (Yellow) multiplex immunofluorescence of untreated and irradiated APTKA tumours. Scale bars=400 μm. Sirius red staining of APTKA orthotopic tumours upon radiotherapy. Scale bars=300 μm. (L) Percent of αSMA, Vim and Col1 triple positive cells in untreated (n=9) and irradiated (n=10) APTKA tumours. Data are mean±SD. ** p<0.01 by t-test. (M) Sirius red pixel positivity in untreated (n=7) and irradiated (n=6) APTKA tumours. Data are mean±SD. * p<0.05 by t-test. (N-P) Ex vivo irradiation (5×2Gy) of APTKA and APTK organoids: (N) relative fluorescent units of untreated and irradiated organoids, 6 h post last dose, using resazurin cell viability kit (n=4 independent wells per condition); (O) quantification of the number of fully grown untreated and irradiated organoids 4 days' post first reseeding (n=7 to 9 independent wells per condition); (P) subcutaneous tumour growth in C57BL/6 mice transplanted with untreated or irradiated organoids. Data are mean±SD. N=6 mice per group; p<0.05 by one-way ANOVA followed by Tukey's multiple comparisons test. Representative results from one experiment which has been independently repeated least 3 times.
(A) Schematic representation of the orthotopic transplantation of APTKA mouse organoids into C57BL/6 mice followed by 5×2 Gy radiotherapy of established tumours untreated or treated daily with anakinra (500 μg/day) for 21 days. (B and C) Overall tumour size (mm3) and % invasive area of 5×2Gy radiated APTKA orthotopic tumours 21 days after last irradiation without (n=5) or with (n=4) anakinra treatment (500 μg/day). Data are mean±SD; p<0.05 by t-test. (D) Frequency of mice with liver metastasis upon irradiation of APTKA orthotopic tumours without (n=5) or with (n=4) anakinra treatment (500 μg/day). (E and F) Sirius red staining of untreated (n=3) or anakinra treated (n=4) 5×2 Gy irradiated APTKA tumours. Scale bars=200 μm. Data are mean±SD. *** p<0.001 by t-test. (G, H) αSMA immunofluorescent staining and its quantification of irradiated APTKA orthotopic tumours without (n=5) or with (n=4) anakinra treatment (500 μg/day). Scale bars=200 μm. Data are mean±SD; p<0.05 by t-test. (I) Schematic representation of IL-1α overexpression in APTK organoids by CRISPRa/Cas9. (J) ELISA of IL-1α protein levels in conditioned media from APTK sgctrl and APTK sgIL-1α organoids (n=4 independent wells per group). Data are mean±SD. **** p<0.0001 by t-test. (K) Relative RNA expression of inflammatory genes in fibroblasts treated with conditioned media from APTK sgctrl and APTK sgIL-1α organoids for 24 h (n=5 independent wells per condition). Data are mean±SD. **** p<0.0001 by t-test. Representative results from one experiment which has been independently repeated 2 times. […]

[1] abbreviates: anakinra 500 μg/day plus 5×2 Gy.
Setting [2] is: anakinra 500 μg/day plus 5×2 Gy, 21 days after last irradiation.

As for “anakinra: Kineret®, an interleukin-1 receptor antagonist”, the APTKA tumour growth result (anakinra 500 μg/day alone, no irradiation, data not shown) was “did not affect APTKA tumour growth significantly”. Further, under setting [1], the “metastasis formation (liver)” value was “blocked metastasis formation”, the “number of αSMA+ cells” value was “decreased number of αSMA+cells” and the sirius red staining entry is on record as “significant decrease in sirius red staining”. Besides, under setting [2], the “invasion (% invasive area)” value is “marked reduction in tumour size and invasion”; the tumour size entry is recorded as “marked reduction in tumour size”.
